Data as given in patent EP2964612B1, “P[…] AND THEIR USE AS FLUORESCENT LABELS” (Illumina Cambridge Limited, priority 2013, dated 2014).

Target: T1, Pol 957 EA (Thermococcus sp., UniProt Q56366)
T1 sequence (Q56366 1-775): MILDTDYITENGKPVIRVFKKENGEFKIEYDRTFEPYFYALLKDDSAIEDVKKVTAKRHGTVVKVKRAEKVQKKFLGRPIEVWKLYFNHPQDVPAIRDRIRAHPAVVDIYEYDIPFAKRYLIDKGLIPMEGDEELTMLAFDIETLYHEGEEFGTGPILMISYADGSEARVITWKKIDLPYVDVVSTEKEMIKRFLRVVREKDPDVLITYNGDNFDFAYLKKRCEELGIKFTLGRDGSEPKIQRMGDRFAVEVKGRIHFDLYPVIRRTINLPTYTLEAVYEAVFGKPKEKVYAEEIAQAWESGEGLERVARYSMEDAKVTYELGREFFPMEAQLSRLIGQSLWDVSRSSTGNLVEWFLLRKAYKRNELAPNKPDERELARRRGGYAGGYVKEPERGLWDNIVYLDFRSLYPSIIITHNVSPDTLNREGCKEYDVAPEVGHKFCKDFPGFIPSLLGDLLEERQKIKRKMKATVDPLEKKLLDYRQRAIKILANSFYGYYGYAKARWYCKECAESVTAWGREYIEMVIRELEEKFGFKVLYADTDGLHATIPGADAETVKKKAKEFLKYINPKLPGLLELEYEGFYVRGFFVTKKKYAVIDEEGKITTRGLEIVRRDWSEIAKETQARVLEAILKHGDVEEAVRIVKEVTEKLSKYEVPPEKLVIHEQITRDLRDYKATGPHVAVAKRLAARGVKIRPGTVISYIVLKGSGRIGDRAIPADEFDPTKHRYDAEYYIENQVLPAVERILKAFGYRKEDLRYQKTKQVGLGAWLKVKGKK
Assay: Binding affinity of labelled 3'-azidomethylthymidine triphosphates to the polymerase (Table 2)

Cc1cn([C@H]2C[C@H](OCN=[N+]=[N-])[C@@H](COP(=O)(O)OP(=O)(O)OP(=O)(O)O)O2)c(=O)[nH]c1=O [Dark ffT] showed a Kd of 550 nM.
